According to US20260266848A1, “COMPOSITIONS AND METHODS FOR DIAGNOSING AND TREATING DYSTONIA” (Duke University, priority 2023, published 2026):

Test system: WT MEF EVs
Assay: Quantitative LC-MS/MS proteomics of EVs from ISRIB-treated WT MEF cultures
Format: cell-based, mouse

SMILES: O=C(COc1ccc(Cl)cc1)NC1CCC(NC(=O)COc2ccc(Cl)cc2)CC1 (centres unmarked) [ISRIB, reference compound]
- Hnrnpc (HNRNPC) EV abundance Log2_FC (WT+ISRIB/WT, 50 nM, 24 h): 1.478
- Ipo9 (IPO9) EV abundance Cohen's d (WT+ISRIB/WT, 50 nM, 24 h): −0.4661
- Ipo9 (IPO9) EV abundance Log2_FC (WT+ISRIB/WT, 50 nM, 24 h): −0.5386
- Jam3 (JAM3) EV abundance Cohen's d (WT+ISRIB/WT, 50 nM, 24 h): −0.3267
- Jam3 (JAM3) EV abundance Log2_FC (WT+ISRIB/WT, 50 nM, 24 h): 0.373
- Lipg (LIPG) EV abundance Cohen's d (WT+ISRIB/WT, 50 nM, 24 h): 0.7395
- Lipg (LIPG) EV abundance Log2_FC (WT+ISRIB/WT, 50 nM, 24 h): −0.3639
- Lrrc59 (LRRC59) EV abundance Cohen's d (WT+ISRIB/WT, 50 nM, 24 h): −0.6884
- Lrrc59 (LRRC59) EV abundance Log2_FC (WT+ISRIB/WT, 50 nM, 24 h): 0.3431
- Mapk3 (MAPK3) EV abundance Cohen's d (WT+ISRIB/WT, 50 nM, 24 h): −0.8739
- Mapk3 (MAPK3) EV abundance Log2_FC (WT+ISRIB/WT, 50 nM, 24 h): −0.163
- Mars (MARS1) EV abundance Cohen's d (WT+ISRIB/WT, 50 nM, 24 h): 0.05955
- Mars (MARS1) EV abundance Log2_FC (WT+ISRIB/WT, 50 nM, 24 h): −0.3717
- Mrc2 (MRC2) EV abundance Cohen's d (WT+ISRIB/WT, 50 nM, 24 h): 0.2117
- Mrc2 (MRC2) EV abundance Log2_FC (WT+ISRIB/WT, 50 nM, 24 h): −0.2942
- Myh9 (MYH9) EV abundance Cohen's d (WT+ISRIB/WT, 50 nM, 24 h): −0.02365
- Myh9 (MYH9) EV abundance Log2_FC (WT+ISRIB/WT, 50 nM, 24 h): 0.05232
- Ndnf (NDNF) EV abundance Cohen's d (WT+ISRIB/WT, 50 nM, 24 h): 1.071
- Ndnf (NDNF) EV abundance Log2_FC (WT+ISRIB/WT, 50 nM, 24 h): −0.1375
- Pcmt1 (PCMT1) EV abundance Cohen's d (WT+ISRIB/WT, 50 nM, 24 h): −0.8553
- Pcmt1 (PCMT1) EV abundance Log2_FC (WT+ISRIB/WT, 50 nM, 24 h): −0.06624
- Pi4ka (PI4KA) EV abundance Cohen's d (WT+ISRIB/WT, 50 nM, 24 h): −0.4893
- Pi4ka (PI4KA) EV abundance Log2_FC (WT+ISRIB/WT, 50 nM, 24 h): 0.3826
- Pitpnb (PITPNB) EV abundance Cohen's d (WT+ISRIB/WT, 50 nM, 24 h): −1.114
- Pitpnb (PITPNB) EV abundance Log2_FC (WT+ISRIB/WT, 50 nM, 24 h): 1.461
- Prpsap2 (PRPSAP2) EV abundance Cohen's d (WT+ISRIB/WT, 50 nM, 24 h): 0.2158
- Prpsap2 (PRPSAP2) EV abundance Log2_FC (WT+ISRIB/WT, 50 nM, 24 h): −0.6725
- Psmc5 (PSMC5) EV abundance Cohen's d (WT+ISRIB/WT, 50 nM, 24 h): 0.4267
- Psmc5 (PSMC5) EV abundance Log2_FC (WT+ISRIB/WT, 50 nM, 24 h): −0.3622
- Psmd12 (PSMD12) EV abundance Cohen's d (WT+ISRIB/WT, 50 nM, 24 h): 0.00373
- Psmd12 (PSMD12) EV abundance Log2_FC (WT+ISRIB/WT, 50 nM, 24 h): −0.3805
- Psme4 (PSME4) EV abundance Cohen's d (WT+ISRIB/WT, 50 nM, 24 h): −0.8162
- Psme4 (PSME4) EV abundance Log2_FC (WT+ISRIB/WT, 50 nM, 24 h): −0.7974
- Ptma (PTMA) EV abundance Cohen's d (WT+ISRIB/WT, 50 nM, 24 h): 0.6355
- Ptma (PTMA) EV abundance Log2_FC (WT+ISRIB/WT, 50 nM, 24 h): 2.638
- Rap2b (RAP2B) EV abundance Cohen's d (WT+ISRIB/WT, 50 nM, 24 h): 0.3788
- Rap2b (RAP2B) EV abundance Log2_FC (WT+ISRIB/WT, 50 nM, 24 h): −0.1245
- Rbm3 (RBM3) EV abundance Cohen's d (WT+ISRIB/WT, 50 nM, 24 h): −0.3159
- Rbm3 (RBM3) EV abundance Log2_FC (WT+ISRIB/WT, 50 nM, 24 h): 0.2028
- Rhoa (RHOA) EV abundance Cohen's d (WT+ISRIB/WT, 50 nM, 24 h): −1.25
- Rhoa (RHOA) EV abundance Log2_FC (WT+ISRIB/WT, 50 nM, 24 h): −0.00598
- Rpl10 (RPL10) EV abundance Cohen's d (WT+ISRIB/WT, 50 nM, 24 h): −0.35
- Rpl10 (RPL10) EV abundance Log2_FC (WT+ISRIB/WT, 50 nM, 24 h): 0.00077
- Rpl13a (RPL13A) EV abundance Cohen's d (WT+ISRIB/WT, 50 nM, 24 h): 0.3123
- Rpl13a (RPL13A) EV abundance Log2_FC (WT+ISRIB/WT, 50 nM, 24 h): 0.04217
- Rps13 (RPS13) EV abundance Cohen's d (WT+ISRIB/WT, 50 nM, 24 h): −0.2269
- Rps13 (RPS13) EV abundance Log2_FC (WT+ISRIB/WT, 50 nM, 24 h): 0.2809
- Sec31a (SEC31A) EV abundance Cohen's d (WT+ISRIB/WT, 50 nM, 24 h): −0.3764
- Sec31a (SEC31A) EV abundance Log2_FC (WT+ISRIB/WT, 50 nM, 24 h): −0.2838
- Slc2a1 (SLC2A1) EV abundance Cohen's d (WT+ISRIB/WT, 50 nM, 24 h): −0.34
- Slc2a1 (SLC2A1) EV abundance Log2_FC (WT+ISRIB/WT, 50 nM, 24 h): 0.08012
- Stom (STOM) EV abundance Cohen's d (WT+ISRIB/WT, 50 nM, 24 h): −0.7279
- Stom (STOM) EV abundance Log2_FC (WT+ISRIB/WT, 50 nM, 24 h): 0.1135
- Tardbp (TARDBP) EV abundance Cohen's d (WT+ISRIB/WT, 50 nM, 24 h): −0.3087
- Tardbp (TARDBP) EV abundance Log2_FC (WT+ISRIB/WT, 50 nM, 24 h): −0.06285
- Tgfb2 (TGFB2) EV abundance Cohen's d (WT+ISRIB/WT, 50 nM, 24 h): 0.6984
- Tgfb2 (TGFB2) EV abundance Log2_FC (WT+ISRIB/WT, 50 nM, 24 h): −0.319
- Tln1 (TLN1) EV abundance Cohen's d (WT+ISRIB/WT, 50 nM, 24 h): −0.39
- Tln1 (TLN1) EV abundance Log2_FC (WT+ISRIB/WT, 50 nM, 24 h): −0.05074
- Tln2 (TLN2) EV abundance Cohen's d (WT+ISRIB/WT, 50 nM, 24 h): −0.7484
- Tln2 (TLN2) EV abundance Log2_FC (WT+ISRIB/WT, 50 nM, 24 h): −0.02524
- Tubb1 (TUBB1) EV abundance Cohen's d (WT+ISRIB/WT, 50 nM, 24 h): 0.3005
- Tubb1 (TUBB1) EV abundance Log2_FC (WT+ISRIB/WT, 50 nM, 24 h): 0.1945
- Usp7 (USP7) EV abundance Cohen's d (WT+ISRIB/WT, 50 nM, 24 h): −0.3328
- Usp7 (USP7) EV abundance Log2_FC (WT+ISRIB/WT, 50 nM, 24 h): −0.8347
- Wdr26 (WDR26) EV abundance Cohen's d (WT+ISRIB/WT, 50 nM, 24 h): −0.2688
- Wdr26 (WDR26) EV abundance Log2_FC (WT+ISRIB/WT, 50 nM, 24 h): −0.05756
- Zyx (ZYX) EV abundance Cohen's d (WT+ISRIB/WT, 50 nM, 24 h): −0.131
- Zyx (ZYX) EV abundance Log2_FC (WT+ISRIB/WT, 50 nM, 24 h): 0.1801
- Pearson r between DYT genotype effects and ISRIB effects (entire proteome): 0.37
- Pearson r between DYT genotype effects and ISRIB effects (genotype-disrupted proteins): 0.40
